Where “and” joins values, the source holds several entries; their conditions need not be identical. Equal values may be shown once.
Assays:
[1] = tested on: NCI-H1838 lung cancer cells; experiment: Cell viability (MTT) assay, dose dependent; type: cell-based; conditions: Homo sapiens, free DxR alone (control), MTT after 24 h
Description: To assess the cytotoxicity of free DxR and HyApNc-DxR in NCI-H1838 lung cancer cells, the H1838 cells (2×10^4 cells/well) were seeded in a 96 well plate and grown for 24 h. The cells were then washed with 1×PBS (200 μL) and subsequently treated with i) free DxR (as control), ii) HyApNc-DxR or iii) HyApNc.mut-DxR in a dose dependent way with a final DxR concentration ranging from 0.125μM to 50 μM per well. After 2 h of post-treatment, the cells were washed; the RPMI medium was replaced with a fresh RPMI medium, and subsequently either irradiated with UV light for 5 minutes (_=365 nm; 350 mW/cm^2), or not irradiated. Afterwards the cells were incubated for another 24 h at 37° C.
Then for both experiments, 15 μL of a 3-(4,5-dimethylthiazol-2-yl)-2,5-diphenyltetrazolium bromide (MTT) stock solution (5 mg/mL) was added to each well and the cells were incubated at 37° C. for 6 hours. After 6 h post-tretment with MTT solutions, 100 μL of the SDS-HCL solution was added to each well and mixed thoroughly with a pipette and incubated at 37° C. for an additional 12 hours. Finally the absorbance was measured at λ=570 nm by using a Tecan Infinite® M1000 PRO microplate reader.

H1838 cells [2] = experiment: Confocal microscopy of photo-triggered DxR release in cells; type: cell-based, human; conditions: DxR 40 μM, 37° C., 2 h, without UV irradiation
Description: In vitro cell imaging of the cell internalization studies were performed using fluorescence microscopy. Prior to each experiment one 70 to 80% confluent flask was trypsinised and suspended with 10 ml of cell medium. 10 μL of the cell solution was pipetted onto a haemocytometer and the cells were counted. Twenty-four hours prior to the internalization experiments approximately 10,000 NSCLC cells were seeded in 96-well glass bottom multiwell cell culture plates (MatTek® Corporation). The plates were then incubated for 24 hours at 37° C. in 5% CO2-atmosphere. […]
To verify the HyApNc-mediated selective transport of DxR to target cells and its light-triggered release from motif 4, we monitored the fluorescence signal of DxR within and outside of the cell nuclei of H1838 cells that were treated with either free DxR (as control) or with HyApNc-DxR (see Example 1 for details of DxR loading), while keeping the DxR concentrations in the bound and the unbound form fixed at 40 μM (5 μM HyApNc carrying 8 equivalents of DxR). […] When control experiments were performed with a construct lacking DMAB (HyApNcw/oAz-DxR), near-identical DxR fluorescence signals are predominantly observed in the cytosol of the cells with and without UV exposure (FIG. 24A, IV-V).

H1838 cells [3] = conditions: DxR 8 μM, 37° C., 2 h, non-irradiated
Description: For flow cytometry analysis of HyApNc-mediated DxR uptake, the H1838 cells (1×10^5 cells/well) were seeded for 24 h at 37° C. […] The plates were then incubated for 2 h at 37° C. Afterwards, the cells were detached from the plates by trypsinization and transferred to FACS tubes. The cells were then washed twice by centrifugation with 0.5 mL buffer. Afterwards the cell pellets were resuspended in 100 μL 1×PBS buffer and cither irradiated with UV light for 5 minutes (_=365 nm, 350 mW/cm^2) or not irradiated before subjected to FACS analysis. Fluorescence emissions of the internalized DxR were recorded with a 585/42-nm band-pass filter.

[4] = Serum stability in PBS-buffered fetal calf serum (PAGE of 32P-labeled aptamer); type: in vitro ADME; conditions: 10% PBS-buffered FCS, 37° C., 0 to 72 h
Description: (§1) Serum stabilities of trCLN3, its two point mutant non-binding variant trCLN3.mut and their corresponding lipid-functionalized derivatives trCLN3-L4 and trCLN3.mut-L4 were investigated in fetal calf serum (FCS) and human blood serum. For this purpose, the aptamer motifs were labeled at their 5′-end with ^32P to form radiolabeled oligonucleotides. The degradation tests of all the aptamer motifs were performed for 60-72 h at 37°° C. 6 pmol (12 μl of 0.5 μM) of the radio-labeled aptamer (5′-end-labeled with γ-^32P) was incubated in a volume of 300 μl freshly thawed PBS-buffered FCS or human blood serum (270 μl serum+30 μl 10×PBS). For each measurement, 10 μl of the samples were removed, mixed with 90 μl of gel loading buffer (80% formamide+5 mM EDTA+0.01% SDS) and subsequently stored at −20° C. Aliquots of samples were taken after indicated time intervals of 0, 0.3, 1.5, 3, 6, 24, 48, 60 and 72h respectively. The serum stability of the aptamer in FCS or in HBS at different time intervals were analyzed on a denaturing PAGE by loading 10 μl of each sample onto a 10% TAE-Urea gel and running the gels for 90 minutes at 350 V. Gels were wrapped in clingfilm and exposed to a phosphorimager screen in a closed cassette over a period of 12 h and finally the residual intact aptamer bands were analyzed by scanning the screen in a phosphorimage-scanner (FujiFilm FLA 3000). Intensities of the residual intact aptamer bands were calculated applying AIDA image analyzer software program. Serums half-lives of the selected aptamers were determined by using a half-life curve-fitting data analysis program (GraphPad Prism).

[5] = Serum stability in PBS-buffered human blood serum (PAGE of 32P-labeled aptamer); type: in vitro ADME; conditions: 10% PBS-buffered HBS, 37° C., 0 to 72 h
Description: as §1

cMet [6] = biological target: T1, cMet (Homo sapiens, UniProt P08581); experiment: Filter retention assay with 32P-labeled aptamer; type: binding; conditions: filter retention assays
T1 construct: cMet-Fc, which represents the ectodomain of cMet fused to the Fc domain of human IgG1 was purchased from R&D Systems; purchased R&D Systems
T1 sequence (P08581 25-932 limits assumed): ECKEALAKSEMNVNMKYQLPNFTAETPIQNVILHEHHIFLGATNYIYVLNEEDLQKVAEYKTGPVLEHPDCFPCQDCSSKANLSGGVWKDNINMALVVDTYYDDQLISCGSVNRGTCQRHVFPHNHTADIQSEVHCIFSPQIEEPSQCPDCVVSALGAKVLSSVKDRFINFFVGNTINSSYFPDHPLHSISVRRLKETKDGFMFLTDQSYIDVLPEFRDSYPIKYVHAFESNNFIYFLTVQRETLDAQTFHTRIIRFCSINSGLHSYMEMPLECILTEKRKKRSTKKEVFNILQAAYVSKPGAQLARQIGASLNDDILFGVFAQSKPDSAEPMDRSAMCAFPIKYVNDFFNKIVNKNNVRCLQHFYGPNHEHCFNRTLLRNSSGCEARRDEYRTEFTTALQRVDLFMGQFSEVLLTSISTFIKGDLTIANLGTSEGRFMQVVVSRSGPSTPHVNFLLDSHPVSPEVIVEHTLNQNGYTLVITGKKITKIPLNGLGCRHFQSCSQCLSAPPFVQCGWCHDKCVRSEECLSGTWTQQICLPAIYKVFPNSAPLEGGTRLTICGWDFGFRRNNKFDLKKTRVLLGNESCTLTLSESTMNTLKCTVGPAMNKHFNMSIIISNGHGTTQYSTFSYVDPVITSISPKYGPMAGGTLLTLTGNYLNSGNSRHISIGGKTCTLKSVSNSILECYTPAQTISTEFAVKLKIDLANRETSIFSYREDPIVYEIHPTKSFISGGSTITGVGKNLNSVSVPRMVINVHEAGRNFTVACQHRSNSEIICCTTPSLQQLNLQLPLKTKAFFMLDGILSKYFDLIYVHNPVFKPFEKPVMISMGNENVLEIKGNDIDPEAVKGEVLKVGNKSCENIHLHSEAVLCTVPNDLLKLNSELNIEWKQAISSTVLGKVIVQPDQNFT
Excerpt: The anti-cMet aptamer trCLN3, a 40 nucleotide DNA oligonucleotide rich in guanine sequence, is known to form two intramolecular G-quadruplex structure within the G-rich segment of the aptamer. The G-quadruplex structure in trCLN3 is believed to play a role in target recognition and binding to cMet. […] See J. Vinkenborg et al., Angew Chem Int Ed. 2012, […], 9176-9180; which reference is incorporated herein in its entirety. Binding affinity of trCLN3.mut, a control sequence with a guanine double-point mutation corresponding to G7 and G25 was further verified by filter retention assays.

cMet [7] = biological target: T1, cMet; experiment: Competitive filter-binding assay against γ-32P-labeled trCLN3; conditions: competition with γ-32P-trCLN3, cMet ~50 nM, competitor 1 μM-25 pM, 37° C.
Description: To test the effect of lipid-modification on trCLN3 binding properties, we determined IC50 values for each trCLN3 derivative by a competitive filter retention assay in which varying concentrations of unlabeled 5′-(1-dodecynyl)-functionalized trCLN3 aptamers competed with constant amounts of γ-^32P-labeled trCLN3 in binding to cMet. Two control experiments were also performed using unlabeled trCLN3 and its two point mutant variant trCLN3.mut as competitors.
First, the trCLN3 motif was 5′-end-labeled with γ-^32P ATP using T4 polynucleotide kinase. An aliquot of 20 μL solution containing 50 pmol trCLN3. 6.7 pmol γ-^32P ATP and 20 U T4 polynucleotide kinase in 1× polynucleotide kinase buffer (New England Biolabs) was incubated at 37° C. for 45 min. followed by removal of unreacted γ-^32P ATP using an Illustra G-25 microspin column (GE Healthcare. München, Germany). The purity of the radiolabeled aptamer was confirmed using a 10% PAGE-gel.
0.25 mg/ml BSA. 2 mM MgCl2 in 1×PBS, pH 7.4. […] Residual radioactivity due to cMet bound labeled aptamers was quantified using Fujifilm Fla-3000 PhosphorImager and AIDA software. The curves were fitted with GraphPadPrism 3.02 plotting non-linear regression curve and the IC50 values have been calculated assuming a competition for single binding site.

cMet [8] = biological target: T1, cMet; conditions: binding to HGFR (cMet); read-out: dissociation constant (Kd); cited from earlier work

With COc1cccc2c1C(=O)c1c(O)c3c(c(O)c1C2=O)C[C@@](O)(C(=O)CO)C[C@@H]3O[C@H]1C[C@H](N)[C@H](O)[C@H](C)O1 [free DxR, (7S,9S)-7-[(2R,4S,5S,6S)-4-amino-5-hydroxy-6-methyloxan-2-yl]oxy-6,9,11-trihydroxy-9-(2-hydroxyacetyl)-4-methoxy-8,10-dihydro-7H-tetracene-5,12-dione] the IC50 [1] was 8 µM and 4.7 µg/mL, the “DxR fluorescence in cell nuclei (confocal)” value (H1838 cells [2]) was “Strong DxR fluorescence” and the “increase in mean cellular fluorescence intensity vs equivalent dose of HyApNc-DxR or HyApNcw/oAz-DxR” value (H1838 cells [3]) was 5 fold.
In the case of “trCLN3.mut: non-binding control sequence of trCLN3 with guanine double-point mutation at G7 and G25 (DNA TGGATGATAGCTCGGTCGGGGTGGATGGGTTGGCAAGTCT; DNA, backbone and methylation of C not given here)”, the “serum half-life (t1/2)” value [4] is reported as 2.8 h, the “serum half-life (t1/2)” value [5] is reported as 1.9 h and the “binding to cMet” value (cMet [6]) is reported as “almost no binding”.
For “trCLN3: 40-nucleotide anti-cMet DNA aptamer, 5′-TGGATGGTAGCTCGGTCGGGGTGGGTGGGTTGGCAAGTCT-3′ (DNA, backbone and methylation of C not given here)”, the IC50 (cMet [7]) is listed as 0.056 µM, the “serum half-life (t1/2)” value [4] is listed as 8.7 h and the Kd (cMet [8]) is listed as 0.038 µM. For the same compound, the “serum half-life (t1/2)” value [5] was 4.9 h.
